# Experimental data as given in US7863449B2, “Modulators of muscarinic receptors” (Vertex Pharmaceuticals Incorporated, priority 2004, dated 2011).
# Where a name gives a salt, the structure may show the parent alone.
# Assays:
# [1] = molecular target: T1, M4 muscarinic receptor (Homo sapiens, UniProt P08173); test: Functional mobilization of intracellular calcium (FLIPR), M4-CHO cells; assay type: cell-based; conditions: for Emax: 100% efficacy is the maximum response obtained using Carbachol as a control; for M4 Activity: M4-CHO cells, FLIPR calcium mobilization
# T1 construct: expressed in transfected cells; host or cells: CHO (M4-CHO)
# T1 sequence (P08173 1-479): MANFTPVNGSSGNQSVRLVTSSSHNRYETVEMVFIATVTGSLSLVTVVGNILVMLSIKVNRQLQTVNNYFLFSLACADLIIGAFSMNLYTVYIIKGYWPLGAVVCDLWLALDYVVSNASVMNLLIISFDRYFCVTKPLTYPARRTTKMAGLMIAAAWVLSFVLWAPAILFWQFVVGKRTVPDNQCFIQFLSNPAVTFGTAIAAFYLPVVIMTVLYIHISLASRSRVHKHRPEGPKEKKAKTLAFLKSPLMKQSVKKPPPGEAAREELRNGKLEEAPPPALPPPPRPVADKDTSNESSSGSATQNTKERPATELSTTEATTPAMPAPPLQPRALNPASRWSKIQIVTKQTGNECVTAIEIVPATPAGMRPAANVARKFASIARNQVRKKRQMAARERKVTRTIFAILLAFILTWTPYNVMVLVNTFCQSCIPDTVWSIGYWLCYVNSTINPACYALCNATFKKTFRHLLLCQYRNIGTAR
# In short: (§1)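 CHO cells expressing M1 or M4, loaded with Fluo-3 AM or Calcium 3 dye with 1 mM probenecid, 0.5% DMSO final. Agonist mode: compound added directly; antagonist mode: 15 min pre-incubation (or co-application) before carbachol at EC80. Fluorescence recorded 60 s on FLIPR.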
# [2] = molecular target: T2, M1 muscarinic receptor (Homo sapiens, UniProt P11229); test: Functional mobilization of intracellular calcium (FLIPR), M1-CHO cells; assay type: cell-based; conditions: for Emax: 100% efficacy is the maximum response obtained using Carbachol as a control; for M1 Activity: M1-CHO cells, FLIPR calcium mobilization
# T2 construct: expressed in transfected cells; host or cells: CHO (M1-CHO)
# T2 sequence (P11229 1-460): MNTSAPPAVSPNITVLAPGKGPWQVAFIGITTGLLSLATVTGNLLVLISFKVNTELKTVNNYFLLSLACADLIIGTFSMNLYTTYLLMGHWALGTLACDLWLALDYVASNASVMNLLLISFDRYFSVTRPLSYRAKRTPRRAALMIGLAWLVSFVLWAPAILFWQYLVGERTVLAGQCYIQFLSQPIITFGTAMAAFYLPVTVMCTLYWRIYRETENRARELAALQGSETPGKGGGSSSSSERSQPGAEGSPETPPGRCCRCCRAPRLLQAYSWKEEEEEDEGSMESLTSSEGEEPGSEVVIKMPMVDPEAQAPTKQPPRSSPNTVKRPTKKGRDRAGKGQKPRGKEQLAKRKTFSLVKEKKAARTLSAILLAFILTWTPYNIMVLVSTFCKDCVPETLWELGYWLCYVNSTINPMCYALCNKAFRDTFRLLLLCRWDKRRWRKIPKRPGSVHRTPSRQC
# In short: as §1
SMILES,Emax [1],M4 Activity [1],Emax [2],M1 Activity [2]
CCOC(=O)N1C2CCC1CC(N1CCC3(CC1)CN(C(=O)c1snnc1C)Cc1ccccc13)C2 (centres unmarked) [compound 179],25 to 100%,+++ (activity was measured to be less than 1.0 μM),25 to 100%,+++ (activity was measured to be less than 1.0 μM)
Cc1ccc2c(c1)C1(CCN(C3CCOCC3)CC1)OC2=O [compound 180],25 to 100%,+ (activity was measured to be greater than 5.0 μM),25 to 100%,+ (activity was measured to be greater than 5.0 μM)
CS(=O)(=O)N1Cc2ccccc2C2(CCN(C3CC4CCC(C3)N4C(=O)O[C@H]3CCOC3)CC2)C1 (some centres unmarked) [compound 181],25 to 100%,+++ (activity was measured to be less than 1.0 μM),25 to 100%,+++ (activity was measured to be less than 1.0 μM)
CC(=O)N1Cc2ccccc2C2(CCN(CC3CCOCC3)CC2)C1 [compound 182],< 25%,+ (activity was measured to be greater than 5.0 μM),< 25%,+ (activity was measured to be greater than 5.0 μM)
COCCOC(=O)N1C2CCC1CC(N1CCC3(CC1)CN(C(=O)OC)Cc1ccccc13)C2 (centres unmarked) [compound 183],25 to 100%,+++ (activity was measured to be less than 1.0 μM),25 to 100%,+++ (activity was measured to be less than 1.0 μM)
CCCC(=O)N1Cc2ccccc2C2(CCN(CC3CCN(C(=O)OCC)CC3)CC2)C1 [compound 184],25 to 100%,+++ (activity was measured to be less than 1.0 μM),25 to 100%,+++ (activity was measured to be less than 1.0 μM)
CCCC(=O)N1Cc2ccccc2C2(CCN(C3CCN(C(=O)OCC)CC3)CC2)C1 [compound 185],25 to 100%,+++ (activity was measured to be less than 1.0 μM),25 to 100%,+++ (activity was measured to be less than 1.0 μM)
CCOC(=O)N1CCC(N2CCC3(CC2)CN(C(=O)OCC(C)C)Cc2ccccc23)CC1 [compound 186],25 to 100%,+++ (activity was measured to be less than 1.0 μM),25 to 100%,+++ (activity was measured to be less than 1.0 μM)
CCC(=O)CN1CCC2(CC1)CN(C(C)=O)Cc1ccccc12 [compound 187],< 25%,+ (activity was measured to be greater than 5.0 μM),< 25%,+ (activity was measured to be greater than 5.0 μM)
CC(=O)Oc1cccc(CN2CCC3(CC2)CN(C(C)=O)Cc2ccccc23)c1 [compound 188],< 25%,+ (activity was measured to be greater than 5.0 μM),< 25%,+ (activity was measured to be greater than 5.0 μM)
CCCOC(=O)N1C2CCC1CC(N1CCC3(CC1)CN(C(=O)OC1CCC1)Cc1ccccc13)C2 (centres unmarked) [compound 189],25 to 100%,+++ (activity was measured to be less than 1.0 μM),25 to 100%,+++ (activity was measured to be less than 1.0 μM)
CCOC(=O)N1C2CCC1CC(N1CCC3(CC1)CN(C(=O)C(O)(CC)CC)Cc1ccccc13)C2 (centres unmarked) [compound 190],25 to 100%,+++ (activity was measured to be less than 1.0 μM),25 to 100%,+++ (activity was measured to be less than 1.0 μM)
CC(=O)N1Cc2ccccc2C2(CCN(Cc3cc4ccccc4s3)CC2)C1 [compound 191],< 25%,+ (activity was measured to be greater than 5.0 μM),< 25%,+ (activity was measured to be greater than 5.0 μM)
COc1cccc(OC)c1CN1CCC2(CC1)CN(C(C)=O)Cc1ccccc12 [compound 192],25 to 100%,+ (activity was measured to be greater than 5.0 μM),25 to 100%,+ (activity was measured to be greater than 5.0 μM)
CCOC(=O)N1C2CCC1CC(N1CCC3(CC1)CN(C(=O)C1CCCCC1)Cc1ccccc13)C2 (centres unmarked) [compound 193],< 25%,+++ (activity was measured to be less than 1.0 μM),25 to 100%,+++ (activity was measured to be less than 1.0 μM)
O=C(OC1CCC1)N1Cc2ccccc2C2(CCN(C3CC4CCC(C3)N4C(=O)OC3CCC3)CC2)C1 (centres unmarked) [compound 194],25 to 100%,+++ (activity was measured to be less than 1.0 μM),25 to 100%,+++ (activity was measured to be less than 1.0 μM)
CC(C)OC(=O)N1Cc2ccccc2C2(CCN(C3CC4CCC(C3)N4C(=O)O[C@@H]3CCOC3)CC2)C1 (some centres unmarked) [compound 195],25 to 100%,+++ (activity was measured to be less than 1.0 μM),25 to 100%,+++ (activity was measured to be less than 1.0 μM)
"CCON=C1CCC(N2CCC3(CC2)CN(C(C)=O)Cc2ccccc23)CC1 (centres unmarked) [compound 196, 1-(1′-(4-(ethoxyimino)cyclohexyl)-1H-spiro[isoquinoline-4,4′-piperidine]-2(3H)-yl)ethanone]",25 to 100%,+++ (activity was measured to be less than 1.0 μM),25 to 100%,+++ (activity was measured to be less than 1.0 μM)
"CCOC(=O)N1C2CCC1CC(N1CCC3(CC1)CN(C(C)=O)Cc1ccccc13)C2 (centres unmarked) [compound 197, ethyl 3-(2-acetyl-2,3-dihydro-1H-spiro[isoquinoline-4,4′-piperidine]-1′-yl)-8-azabicyclo[3.2.1]octane-8-carboxylate]",25 to 100%,+++ (activity was measured to be less than 1.0 μM),25 to 100%,+++ (activity was measured to be less than 1.0 μM)
"CCOC(=O)N1CCC(CN2CCC3(CC2)CN(C(C)=O)Cc2ccccc23)CC1 [compound 198, Ethyl 4-((2-acetyl-2,3-dihydro-1H-spiro[isoquinoline-4,4′-piperidine]-1′-yl)methyl)piperidine-1-carboxylate hydrochloride]",25 to 100%,+++ (activity was measured to be less than 1.0 μM),25 to 100%,+++ (activity was measured to be less than 1.0 μM)
CC(=O)N1Cc2ccccc2C2(CCN(Cc3ccccc3F)CC2)C1 [compound 199],25 to 100%,+ (activity was measured to be greater than 5.0 μM),< 25%,+ (activity was measured to be greater than 5.0 μM)
CCOC(=O)N1C2CCC1CC(N1CCC3(CC1)CN(S(=O)(=O)c1sc(NC(C)=O)nc1C)Cc1ccccc13)C2 (centres unmarked) [compound 200],25 to 100%,+++ (activity was measured to be less than 1.0 μM),25 to 100%,+++ (activity was measured to be less than 1.0 μM)
CCOC(=O)N1C2CCC1CC(N1CCC3(CC1)CN(S(C)(=O)=O)Cc1ccccc13)C2 (centres unmarked) [compound 201],25 to 100%,+++ (activity was measured to be less than 1.0 μM),25 to 100%,+++ (activity was measured to be less than 1.0 μM)
CCOC(=O)N1CCC(N2CCC3(CC2)CN(C(=O)OC2CCC2)Cc2ccccc23)CC1 [compound 202],25 to 100%,+++ (activity was measured to be less than 1.0 μM),25 to 100%,+++ (activity was measured to be less than 1.0 μM)
CCOC(=O)N1C2CCC1CC(N1CCC3(CC1)CN(C(=O)c1sc(C)nc1C)Cc1ccccc13)C2 (centres unmarked) [compound 203],25 to 100%,+++ (activity was measured to be less than 1.0 μM),25 to 100%,+++ (activity was measured to be less than 1.0 μM)
CCOC(=O)N1CCC(N2CCC3(CC2)CN(C(=O)N(C)C)Cc2ccccc23)CC1 [compound 204],25 to 100%,+++ (activity was measured to be less than 1.0 μM),25 to 100%,+++ (activity was measured to be less than 1.0 μM)
